Test results reported in US9132082B2, “Compositions and methods for inhibiting gastric acid secretion” (Vecta, Ltd., priority 2005, dated 2015).

Assays:
[1] = system: nocturnal gastric acid secretion; assay: Clinical study: bedtime omeprazole with succinic acid one hour later, gastric pH probe; assay type: in vivo, human; settings: average n = 7
Protocol: Succinic Acid was administered one hour following Omeprazole administration. Gastric pH was measured on Day 1 and 5 using a pH probe. The pH probe was inserted into the distal portion of the stomach and located 20 cm below the lower esophageal sphincter. Baseline measurements of gastric pH were performed before omeprazole administration and during the following 24 hours. Standard meals were administered during pH monitoring. Blood samples for PK analysis of Omeprazole were drawn on Day 1 and 5. After a washout period of at least 14 days, the same subjects were administered with Omeprazole 40 mg alone.

gastric pH = assay: Further clinical study: omeprazole and SA capsules co-administered at bedtime, 24 h gastric pH; assay type: in vivo, human; settings: 10:00 pm on empty stomach
Protocol: In a further clinical study; healthy human volunteers were administered with Omeprazole and SA capsules which were co-administered at bed-time: Treatment T1-40 mg Omeprazole plus 600 mg SA; Treatment T2-40 mg Omeprazole plus 300 mg SA; Treatment T3-20 mg Omeprazole plus 300 mg SA. The study included gastric pH measurements on day 1 (first dose), day 3 (third dose) and day 5 (fifth dose). Study medications were administered at 10:00 pm on empty stomach and pH measurements were recorded for 24 hrs. The percentage time of gastric pH above 4 following the administration of SA and Omeprazole was calculated after the first dose, the third dose and the fifth dose.

gastric acid secretion [2] = assay: 3-way crossover clinical trial of Cap-in-Cap OMP/SA versus OMP, 24 hour intra-gastric pH; assay type: in vivo, human; settings: OMP/SA at bedtime without food, OMP 20 mg before breakfast
Protocol: Thirty-six (36), H. pylori negative, healthy human volunteers received OMP 20 mg/SA 300 mg or OMP 40 mg/SA 300 mg at bedtime without food formulated as Cap-in-Cap capsules and OMP 20 mg dosed on an empty stomach before breakfast. These drugs were tested in a 3-way, randomized crossover study. […] Each treatment was administered once daily, for 5 consecutive days with a washout period of 21-25 days between treatments. 24 Hour intra-gastric pH monitoring was performed following the fifth dose (day 5).

gastric acid output = settings: extracted from fermented alcoholic beverages; Teyssen et al.; cited from earlier work
frog mucosa = settings: ex vivo model of frog mucosa; cited from earlier work
gastric acid secretion [3] = assay: Conscious pylorus-ligated rats: pantoprazole alone or with succinic or maleic acid; assay type: in vivo; settings: maleic acid 14.7 mg/kg with pantoprazole 3 mg/kg; FIG. 4
Protocol: This experimental model permits the analysis of the effect of drugs on gastric acid secretion in conscious animals and avoids the effect of anesthesia on gastric acid secretion. […] The ligature was placed around the esophagus, the stomach removed and gastric content was collected. Following centrifugation, the gastric output and the pH of the gastric juice samples was determined.

gastric acid secretion [4] = settings: 15 mg/kg per os, pylorus ligated 30 min later, gastric juice after 60 min; FIG. 1
Protocol: Rats were administered (per os) with 15 mg/kg of sodium succinate (Na-SA) using gavage. 30 minutes later the rats were anesthetized with ketamine/domitor and the pylorus was ligated. Following additional 60 min, gastric juice was collected from the gastric lumen. Acid output was determined by titration with NaOH. Total acid output expressed in mEq HCl was calculated by multiplying the sample volume by the acid concentration. Results are expressed as means±SEM of 12 animals from each experimental group.

gastric acid secretion [5] = settings: administered after ligation of the pylorus; FIG. 5
Protocol: The possibility that succinic acid induces gastric acid secretion via local effect on the gastric lumen was tested in animals in which sodium succinate was administered after the ligation of the pylorus.

[6] = Day 1, bedtime dosing without a meal
[7] = Day 5, bedtime dosing without a meal

Compound: COc1ccc2[nH]c([S+]([O-])Cc3ncc(C)c(OC)c3C)nc2c1 (stereo not drawn) [Omeprazole, omeprazole]
- 2:00-4:00 AM (% time pH > 4) [1, 6]: 32.72%
- 4:00-6:00 AM (% time pH > 4) [1, 6]: 52.30%
- 12:00-2:00 AM (% time pH > 4) [1, 6]: 29.57%
- 2:00-4:00 AM (% time pH > 4) [1, 7]: 53.11%
- 4:00-6:00 AM (% time pH > 4) [1, 7]: 64.94%
- 12:00-2:00 AM (% time pH > 4) [1, 7]: 52.31%
- % time with pH > 4 (nocturnal hours only) (gastric pH; Fifth dose): Fifth dose: 49%
- % time with pH > 4 (total 24 h) (gastric pH; Fifth dose): Fifth dose: 64%
- % time with pH > 4 (nocturnal hours only) (gastric pH; First dose): First dose: 25%
- % time with pH > 4 (total 24 h) (gastric pH; First dose): First dose: 41%
- Nighttime % time pH < 3 (gastric acid secretion [2]; 12 am-8 am, day 5): 65.5%
- Nighttime % time pH > 4 (gastric acid secretion [2]; 12 am-8 am, day 5): 27.2%
- Nighttime % time pH > 5 (gastric acid secretion [2]; 12 am-8 am, day 5): 11.5%
- 24-hour % time pH < 3 (gastric acid secretion [2]; day 5 (fifth dose)): 31.2%
- 24-hour % time pH > 4 (gastric acid secretion [2]; day 5 (fifth dose)): 47.6%
- 24-hour % time pH > 5 (gastric acid secretion [2]; day 5 (fifth dose)): 21.6%

Compound: O=C(O)CCC(=O)O [Succinic acid, succinic acid]
- gastric acid output in humans (gastric acid output): stimulate gastric acid output
- proton secretion (frog mucosa): may stimulates proton secretion

Compound: O=C(O)CCC(=O)C(=O)O [alpha-ketoglutarate]
- proton secretion (frog mucosa): may stimulates proton secretion

Compound: O=C(O)CC(O)C(=O)O (stereo not drawn) [malate]
- proton secretion (frog mucosa): may stimulates proton secretion

Compound: O=C(O)/C=C\C(=O)O [maleic acid]
- inhibitory effect of pantoprazole on gastric acid secretion (gastric acid secretion [3]): enhanced the inhibitory effect of pantoprazole
- gastric acid output in humans (gastric acid output): stimulate gastric acid output

Compound: O=C([O-])CCC(=O)[O-].[Na+].[Na+] [sodium succinate]
- gastric acid secretion (total acid output) (gastric acid secretion [4]): significantly enhanced gastric acid secretion
- acid secretion (gastric acid secretion [5]): capable of inducing acid secretion
